Data published in patent US20250333397A1 (REMIX THERAPEUTICS INC., priority 2021, published 2025).
Like-named read-outs stand apart in the source and are kept apart here.

Legend:
Format in all cases: cell-based, human
Target C mRNA = experiment: RT-qPCR splicing assay panel, Target C canonical junction (CJ) mRNA
Procedure, shortened: (§1)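 A673 or K562 cells were treated 24 h at 37 °C with an 11-point 3-fold compound dilution series, top dose 10 uM final, DMSO ≤0.25%. Lysates went to one-step RT-qPCR for canonical (CJ) and alternative-exon (AJ) junctions; ΔCt vs GAPDH, GUSB or PPIA, normalized to DMSO, as 2^(-ΔΔCt).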

SMN2 mRNA = experiment: RT-qPCR splicing assay panel, SMN2 canonical junction (CJ) mRNA
Procedure, shortened: as §1

MYB mRNA = experiment: RT-qPCR splicing assay, MYB canonical (CJ) and alternative (AJ) junction mRNA; details: for AC50: read-out: MYB AJ (AC50, increase in AJ mRNA)
Procedure, shortened: as §1

HTT mRNA = experiment: RT-qPCR splicing assay, HTT canonical (CJ) and alternative (AJ) junction mRNA; details: for AC50: read-out: HTT AJ (AC50, increase in AJ mRNA)
Procedure, shortened: as §1

[1] = Homo sapiens, canonical junction (CJ) mRNA, RT-qPCR panel, Table 4A, read-out: Target C, decrease in CJ mRNA levels, IC50
[2] = Homo sapiens, canonical junction (CJ) mRNA, RT-qPCR panel, Table 4A, read-out: SMN2, decrease in CJ mRNA levels, IC50
[3] = Homo sapiens, 24 h, Table 3A, A673 or K562 cells, 24 h treatment
[4] = Homo sapiens, 24 h, Table 3A, A673 or K562 cells, 24 h treatment, read-out: MYB CJ (IC50, decrease in CJ mRNA)
[5] = Homo sapiens, canonical junction (CJ) mRNA, RT-qPCR panel, Table 4A, read-out: MYB, decrease in CJ mRNA levels, IC50
[6] = Homo sapiens, 24 h, Table 3A, A673 or K562 cells, 24 h treatment, read-out: HTT CJ (IC50, decrease in CJ mRNA)
[7] = Homo sapiens, canonical junction (CJ) mRNA, RT-qPCR panel, Table 4A, read-out: HTT, decrease in CJ mRNA levels, IC50
[8] = canonical junction (CJ) mRNA, RT-qPCR panel, Table 4A, read-out: Target C, decrease in CJ mRNA levels, IC50
[9] = canonical junction (CJ) mRNA, RT-qPCR panel, Table 4A, read-out: SMN2, decrease in CJ mRNA levels, IC50
[10] = Table 3A, A673 or K562 cells, 24 h treatment
[11] = Table 3A, A673 or K562 cells, 24 h treatment, read-out: MYB CJ (IC50, decrease in CJ mRNA)
[12] = canonical junction (CJ) mRNA, RT-qPCR panel, Table 4A, read-out: MYB, decrease in CJ mRNA levels, IC50
[13] = Table 3A, A673 or K562 cells, 24 h treatment, read-out: HTT CJ (IC50, decrease in CJ mRNA)
[14] = canonical junction (CJ) mRNA, RT-qPCR panel, Table 4A, read-out: HTT, decrease in CJ mRNA levels, IC50
[15] = Homo sapiens, 24 h, Table 3B, A673 or K562 cells, 24 h treatment

Compound | IC50 (Target C mRNA; [1]) [nM] | IC50 (SMN2 mRNA; [2]) [nM] | AC50 (MYB mRNA; [3]) [nM] | IC50 (MYB mRNA; [4]) [nM] | IC50 (MYB mRNA; [5]) [nM] | AC50 (HTT mRNA; [3]) [nM] | IC50 (HTT mRNA; [6]) [nM] | IC50 (HTT mRNA; [7]) [nM] | further results
CCN(C1CCC1)[C@@H]1CCN(c2ccc(-c3ccc(-c4cnnc(OC)c4)cc3O)nn2)C1 [Compound 290, 2-{6-[(3R)-3-[cyclobutyl(ethyl)amino]pyrrolidin-1-yl]pyridazin-3-yl}-5-(6-methoxypyridazin-4-yl)phenol] | 100 to 1000 | < 100 | 100 to 1000 | 100 to 1000 | 100 to 1000 | 100 to 1000 | 100 to 1000 | 100 to 1000 | –
CNc1cc(-c2ccc(-c3ccc(N4CCC(NCC5CC5)C4)nn3)c(O)c2)ncn1 (centres unmarked) [Compound 434] | 100 to 1000 | < 100 | 100 to 1000 | 100 to 1000 | 100 to 1000 | < 100 | < 100 | < 100 | –
CN(C1CCC1)[C@H]1CCN(c2ccc(-c3ccc(-c4cn[nH]c4)cc3O)nn2)C1 [Compound 294, 2-{6-[(3S)-3-[cyclobutyl(methyl)amino]pyrrolidin-1-yl]pyridazin-3-yl}-5-(1H-pyrazol-4-yl)phenol] | 100 to 1000 | < 100 | 100 to 1000 | 100 to 1000 | 100 to 1000 | 100 to 1000 | < 100 | < 100 | –
CNc1cc(-c2ccc(-c3ccc(N4CC[C@@H](NC(C)(C)C)C4)nn3)c(O)c2)ncn1 [Compound 437, 2-{6-[(3R)-3-(tert-butylamino)pyrrolidin-1-yl]pyridazin-3-yl}-5-[6-(methylamino)pyrimidin-4-yl]phenol] | < 100 | < 100 | < 100 | < 100 | < 100 | < 100 | < 100 | < 100 | –
COc1cc(-c2ccc(-c3ccc(N4CC[C@H](NC5(C)CC5)C4)nn3)c(O)c2)cnn1 [Compound 265, 5-(6-methoxypyridazin-4-yl)-2-{6-[(3S)-3-[(1-methylcyclopropyl)amino]pyrrolidin-1-yl]pyridazin-3-yl}phenol] | – | – | – | – | – | – | – | – | IC50 (Target C mRNA; [8]): < 100 nM; IC50 (SMN2 mRNA; [9]): < 100 nM; AC50 (MYB mRNA; [10]): < 100 nM; IC50 (MYB mRNA; [11]): < 100 nM; IC50 (MYB mRNA; [12]): < 100 nM; AC50 (HTT mRNA; [10]): < 100 nM; IC50 (HTT mRNA; [13]): < 100 nM; IC50 (HTT mRNA; [14]): < 100 nM
Oc1cc(-c2cn[nH]c2)ccc1-c1ccc(N2CCC(NC3CC3)C2)nn1 (centres unmarked) [Compound 100, 2-(6-(3-(cyclopropylamino)pyrrolidin-1-yl)pyridazin-3-yl)-5-(1H-pyrazol-4-yl)phenol] | – | – | – | – | – | – | – | – | IC50 (Target C mRNA; [8]): < 100 nM; IC50 (SMN2 mRNA; [9]): < 100 nM; AC50 (MYB mRNA; [10]): 100 to 1000 nM; IC50 (MYB mRNA; [11]): 100 to 1000 nM; IC50 (MYB mRNA; [12]): 100 to 1000 nM; AC50 (HTT mRNA; [10]): < 100 nM; IC50 (HTT mRNA; [13]): < 100 nM; IC50 (HTT mRNA; [14]): < 100 nM
O=c1cc(-c2cc(O)c(-c3ccc(N4CC[C@H](NC5CCC5)C4)nn3)cc2F)cc[nH]1 [Compound 221] | 1000 to 10000 | < 100 | 1000 to 10000 | 100 to 1000 | 100 to 1000 | 100 to 1000 | 100 to 1000 | 100 to 1000 | –
Cc1ncc(-c2cc(O)c(-c3ccc(N4CC[C@@H](NC5CCC5)C4)nn3)cc2F)o1 [Compound 228, 2-{6-[(3R)-3-(cyclobutylamino)pyrrolidin-1-yl]pyridazin-3-yl}-4-fluoro-5-(2-methyl-1,3-oxazol-5-yl)phenol] | 100 to 1000 | < 100 | 100 to 1000 | 100 to 1000 | 100 to 1000 | 100 to 1000 | 100 to 1000 | 100 to 1000 | –
COc1cc(-c2ccc(-c3ccc(N4CCC(C)(NC5CCC5)C4)nn3)c(O)c2)cnn1 (centres unmarked) [Compound 275] | < 100 | < 100 | 100 to 1000 | 100 to 1000 | 100 to 1000 | < 100 | < 100 | < 100 | –
CN(c1ccc(-c2ccc(-c3cn[nH]c3)cc2O)nn1)C1CC(C)(C)NC(C)(C)C1 [Compound 360] | < 100 | < 100 | < 100 | < 100 | < 100 | < 100 | < 100 | < 100 | –
CC1(C)CC(Oc2ncc(-c3cc(F)c(-c4cn[nH]c4)cc3O)nn2)CC(C)(C)N1 [Compound 377] | 100 to 1000 | 100 to 1000 | 1000 to 10000 | 1000 to 10000 | 1000 to 10000 | 100 to 1000 | 100 to 1000 | 100 to 1000 | –
COc1cc(-c2ccc(-c3ccc(N4CC[C@H](NC(C)(C)C)C4)nn3)c(O)c2)ncn1 [Compound 283, 2-{6-[(3S)-3-(tert-butylamino)pyrrolidin-1-yl]pyridazin-3-yl}-5-(6-methoxypyrimidin-4-yl)phenol] | < 100 | < 100 | 100 to 1000 | 100 to 1000 | 100 to 1000 | < 100 | < 100 | < 100 | –
COc1cc(-c2ccc(-c3ccc(N4CC[C@@H](NC(C)(C)C)C4)nn3)c(O)c2)cnn1 [Compound 209, 2-{6-[(3R)-3-(tert-butylamino)pyrrolidin-1-yl]pyridazin-3-yl}-5-(6-methoxypyridazin-4-yl)phenol] | < 100 | < 100 | < 100 | < 100 | < 100 | < 100 | < 100 | < 100 | –
COc1cc(-c2cc(O)c(-c3ccc(N4CC[C@@H](N[C@H]5C[C@@H](F)C5)C4)nn3)cc2F)cnn1 (racemic) [Compound 161, 4-fluoro-5-(6-methoxypyridazin-4-yl)-2-[6-(3-{[(1s,3s)-3-fluorocyclobutyl]amino}pyrrolidin-1-yl)pyridazin-3-yl]phenol] | 100 to 1000 | < 100 | 100 to 1000 | 100 to 1000 | 100 to 1000 | 100 to 1000 | 100 to 1000 | 100 to 1000 | –
Cc1nc(-c2cc(O)c(-c3ccc(N4CCC(NC5CCC5)C4)nn3)cc2F)cs1 (centres unmarked) [Compound 398] | 1000 to 10000 | 1000 to 10000 | 1000 to 10000 | 1000 to 10000 | 1000 to 10000 | 1000 to 10000 | 1000 to 10000 | 1000 to 10000 | –
Cc1cc(-c2ccc(-c3ccc(N4CCC(NCC5CC5)C4)nn3)c(O)c2)ncn1 (centres unmarked) [Compound 369] | 1000 to 10000 | 100 to 1000 | 1000 to 10000 | 1000 to 10000 | 1000 to 10000 | 1000 to 10000 | 1000 to 10000 | 1000 to 10000 | –
Cc1ccc2cc(-c3ccc(N4CCC(NC(C)(C)C)C4)nn3)c(O)cc2n1 (centres unmarked) [Compound 817] | – | – | – | – | – | – | – | – | IC50 (Target C mRNA; Homo sapiens, Table 4B, gene panel, read-out: Target C (IC50, decrease in CJ mRNA levels)): > 10000 nM; IC50 (SMN2 mRNA; Homo sapiens, Table 4B, gene panel, read-out: SMN2 (IC50, decrease in CJ mRNA levels)): 1000 to 10000 nM; AC50 (MYB mRNA; [15]): > 10000 nM; IC50 (MYB mRNA; Homo sapiens, 24 h, Table 3B, A673 or K562 cells, 24 h treatment, read-out: MYB CJ (IC50, decrease in CJ mRNA)): > 10000 nM; IC50 (MYB mRNA; Homo sapiens, Table 4B, gene panel, read-out: MYB (IC50, decrease in CJ mRNA levels)): > 10000 nM; AC50 (HTT mRNA; [15]): > 10000 nM; IC50 (HTT mRNA; Homo sapiens, 24 h, Table 3B, A673 or K562 cells, 24 h treatment, read-out: HTT CJ (IC50, decrease in CJ mRNA)): > 10000 nM; IC50 (HTT mRNA; Homo sapiens, Table 4B, gene panel, read-out: HTT (IC50, decrease in CJ mRNA levels)): > 10000 nM
Cc1cn(-c2cc(O)c(-c3ccc(N4CC[C@@H](NC5CCC5)C4)nn3)cc2F)cn1 [Compound 226, 2-{6-[(3R)-3-(cyclobutylamino)pyrrolidin-1-yl]pyridazin-3-yl}-4-fluoro-5-(4-methylimidazol-1-yl)phenol] | 100 to 1000 | < 100 | 100 to 1000 | 100 to 1000 | 100 to 1000 | 100 to 1000 | < 100 | < 100 | –
CN(C)c1cc(-c2ccc(-c3ccc(N4CCC(NC5CCC5)C4)nn3)c(O)c2)cnn1 (centres unmarked) [Compound 409] | > 10000 | > 10000 | > 10000 | > 10000 | > 10000 | > 10000 | > 10000 | > 10000 | –
